Patent publication US8772321B2, “Heteroannelated anthraquinone derivatives for inhibiting cancers” (National Defense Medical Center, priority 2008, dated 2014)
Where a SMILES comes first, the peptide text is derived from it. The star is where a group is joined. Cbz = O=C(OCc1ccccc1)*

Columns and labels:
Assay type in all cases: cell-based, human
HeLa cells [1] = assay: DNA damage, immunoblot of γ-phosphorylation of histone H2A.X; conditions: various doses, 12 hour
Protocol: The anthracyclin antibiotic agent doxorubicin (DXR) is an active cytotoxic reagent with a wide range of clinical indications, including treatment of solid tumors in the ovary, breast, and gastrointestinal systems, as well as treatment of liquid tumors such as leukemia. […] Specifically, HeLa cells were treated with NSC745885 at various doses for 12 hour. The phosphorylation of γ-H2A.X was subsequently detected by the immunoblot.
(§1) Cell lysates were prepared in lysis buffer (100 mM Tris-HCl pH 8.0, 150 mM NaCl, 0.1% SDS, and 1% Triton 100) at 4° C., separated by sodium dodecyl sulfate-polyacrylamide gel electrophoresis (SDS-PAGE), and then transferred onto a polyvinylidine difluoride membrane (Millipore, USA). Proteins were detected using antibodies against alpha actinin (ACTN), proliferating cell nuclear antigen (PCNA), p53, p21, cyclin B1, and cyclin D1 (Santa Cruz Biotechnology, USA), YH2A.X (EP854(2)Y, Epitomics, USA), cleaved caspase 3, cleaved poly(ADP-ribose) polymerase (PARP) and LC3B-II (Cell signaling, USA).

HeLa cells [2] = assay: Senescence-associated β-galactosidase staining; conditions: DXR at low concentrations
Protocol: Cultured cells were washed in PBS (pH 7.4), incubated in a solution of 2% formaldehyde/0.2% glutaraldehyde, and then incubated overnight at 37° C. in freshly prepared staining solution consisting of 1 mg/mL X-gal (5-bromo-4-chloro-3-indolyl-β-D-galactoside), 5 mM K3Fe(CN)6, 5 mM K4Fe(CN)6, 150 mM NaCl and 2 mM MgCl2 in 40 mM citric acid/sodium phosphate, pH 6.0. Following this incubation, cells were washed with water and examined by light microscopy at 200× magnification.
(§2) In FIGS. 5C and 5D, HeLa cells were incubated with 2.5 μM NSC745885 for 24 hours. After 48 hours, cells were subjected to SA-β-galactosidase staining (FIG. 5C) and approximately 100 stained cells were quantified (*P<0.05; ** P<0.01; *** P<0.005). NSC745885 induced senescence at a rate of 25% (P=0.0085 compared to DMSO). (FIG. 5D) LC3B-I fragments were observed when the cells were exposed to the drug for longer period of time (FIG. 5A, panel labeled as LE). […] We also treated Hela cells with the autophagy inducer spermidine (Spd) and vehicle (DMSO), which act as the positive and the negative control, respectively.

HeLa cells [3] = assay: Autophagy: LC3B-II immunoblot; conditions: 12 hours
Protocol: as §1
Altered intracellular localization of LC3B (LC3B-I) and increased electrophoretic mobility of LC3B (LC3B-II) are correlated with recruitment to autophagic membranes and can be used as molecular markers for autophagic activation.
In FIG. 5A, HeLa cells were treated with the indicated concentrations of DXR, NSC745885 for 12 hours, and then cell lysates were analyzed by immunoblot using antibodies directed against LC3. The results are representative of three independent experiments.

HeLa/shp53 cells = assay: MTT cell viability assay, HeLa vs HeLa/shp53; conditions: endogenous p53 silenced; 24, 48, 72 hours
Protocol: (§3) HeLa and HeLa/shp53 cells were grown in DMEM supplemented with 10% charcoal/dextran-treated fetal bovine serum. Cells in a 24-well plate were transfected with jetPEI (PolyPlus-transfection, France) according to the manufacturer's protocol; total DNA was adjusted to 1.0 μg by the addition of empty vector DNA. Luciferase assays were performed using the Promega Luciferase Assay kit, and the measurement was expressed numerically as relative light units (RLU). Luciferase activities were presented as means and standard deviation of two transfected sets. […] Instead, the reproducibility of the observed effects on luciferase activity was determined in multiple independent transfection experiments.
To understand the functional role that endogenous p53 plays in the cytotoxic effects of DXR and NSC745885, we measured cell viability of HeLa or HeLa/shp53 cells using MTT cell viability assay. In this assay, endogenous p53 is silenced, both in the presence or absence of the drugs (FIG. 8). […]

HeLa cells [4] = assay: Autophagosome formation, GFP-LC3 fluorescence microscopy; conditions: HeLa cells transfected with GFP-LC3; 2.5 μM NSC745885, 12 hours
Protocol: In FIG. 5B, HeLa cells were transfected with 0.25 μg of an expression vector for GFP-LC3 for 24 hours and then treated with 2.5 μM NSC745885 for 12 hours. […] Vehicle (DMSO) and spermidine (Spd) were used as a negative and positive control, respectively.
as §2

HeLa cells [5] = assay: Apoptosis: cleaved PARP and caspase 3 immunoblot, DNA fragmentation gel; conditions: various doses, 16 hours
Protocol: It is well noted that DXR can induce cardiomyocyte death by apoptosis and necrosis. DXR is also involved in other types of cellular processes, such as autophagy and senescence/aging. To investigate induction of apoptosis caused by NSC745885, we adopted DXR as a positive control and examined the levels of cleaved PARP and caspase 3 as apoptotic indicators using immunoblot (FIG. 4A), as well as DNA fragmentation using agarose gel electrophoresis (FIG. 4B). HeLa cells were treated with either DXR or NSC745885 at various doses for 16 hours. Subsequently, the total cellular protein was extracted and immunoblotted with antibodies against the cleaved types of PARP and caspase 3. Additionally, genomic DNA was isolated and analyzed by 2% agarose gel electrophoresis followed by ethidium bromide staining. The results (FIG. 4A and FIG. 4B) are representative of three independent experiments. […] Treatment with NSC745885 decreased protein stability, an effect that appeared to be selective, and was confirmed in other immunoblot analyses (shown in FIG. 6A, lanes 1 and 6).
as §1

[6] = test system: p53-dependent reporter (pG13-LUC); assay: p53-dependent reporter (pG13-LUC) luciferase assay; conditions: HeLa cells co-transfected with Zac1 expression vector
Protocol: as §3
HeLa cells infected with human papillomavirus and expressing the E6 oncoprotein, which maintains endogenous wild-type p53 at a very low concentration, are used as a model system for studying human cervical tumorigenesis. In order for us to confirm the effects of DXR and NSC745885 on endogenous p53, HeLa cells were transiently transfected with a p53-dependent reporter (pG13-LUC) (FIG. 7A) and a p21 promoter reporter (p21-LUC) (FIG. 7B), along with an expression vector for a well-known p53 activator (Zac1).

HeLa cells [7] = assay: Cell cycle profile by FACS
Excerpt: Cell cycle arrest is an important damage surveillance mechanism. […] Treating the cells with NSC745885 caused 47-58% of cells to arrest in sub-G1, which is indicative of cell death. This effect was dose- and time-dependent (FIG. 3, Panel B).

p53 and p21 = p53 and p21 protein expression, immunoblot; conditions: HeLa cells, MG132 1 uM or 10 uM added 3 hours before harvesting; only at lower concentrations of NSC745885
Protocol: as §1
Cell cycle regulatory protein p21 is one of p53's targets. […] In this experiment, HeLa cells were treated with the indicated concentrations of DXR or NSC745885 for 12 hours and then assessed by immunoblot (FIG. 6A) and RT-PCR (FIG. 6B).
In FIG. 6C, HeLa cells were treated with the indicated concentrations of NSC745885 for 12 hours; proteasome inhibitor MG132 (1 uM or 10 uM) was added 3 hours before harvesting. Cell protein extracts were tested with anti-p53 and anti-p21 antibodies. The results are representative of two independent experiments.

COc1cccc2c1C(=O)c1c(O)c3c(c(O)c1C2=O)C[C@@](O)(C(=O)CO)C[C@@H]3O[C@H]1C[C@H](N)[C@H](O)[C@H](C)O1 [DXR, doxorubicin, reference compound]
DNA damage (phosphorylation of γ-H2A.X, immunoblot) (HeLa cells [1]): strongly induced DNA damage | senescence rate (SA-β-galactosidase staining) (HeLa cells [2]): 73% | LC3B-II fragment formation (autophagic activation) (HeLa cells [3]): LC3B-II fragment formation | sensitivity (cell viability, MTT) in HeLa/shp53 versus HeLa cells (HeLa/shp53 cells): dependent on endogenous p53 for cell killing | autophagosome formation (LC3 aggregation, GFP-LC3) (HeLa cells [4]): autophagosome formation | induction of apoptosis (cleaved PARP, caspase 3, DNA fragmentation) (HeLa cells [5]): strongly induced | Zac1-induced p53-dependent reporter activity [6]: inhibited Zac1-induced activity | cell cycle arrest (HeLa cells [7]): cell cycle arrest in S phase

CC(C)C[C@@H](C=O)NC(=O)[C@H](CC(C)C)NC(=O)[C@H](CC(C)C)NC(=O)OCc1ccccc1 [MG132, reference compound] (Cbz-Leu-Leu-Leu-aldehyde)
effect of MG132 on p53 and p21 degradation by NSC745885 (p53 and p21): attenuate the degradation of p53 and p21
